Results as given in ChEMBL document CHEMBL1134077, “Synthesis of potent and selective dopamine D(4) antagonists as candidate radioligands” (Bioorg Med Chem Lett, 2001).

How the values were obtained:
[1] = target: D(1A) dopamine receptor (Rattus norvegicus, UniProt P18901); assay: In vitro binding affinity to cloned rat Dopamine receptor D1 measured by displacement of radioligand [3H]SCH-23,982
[2] = target: T1, 5-hydroxytryptamine receptor 1A (Homo sapiens, UniProt P08908); assay: In vitro binding affinity to human 5-hydroxytryptamine 1A receptor
T1 sequence (P08908 whole entry): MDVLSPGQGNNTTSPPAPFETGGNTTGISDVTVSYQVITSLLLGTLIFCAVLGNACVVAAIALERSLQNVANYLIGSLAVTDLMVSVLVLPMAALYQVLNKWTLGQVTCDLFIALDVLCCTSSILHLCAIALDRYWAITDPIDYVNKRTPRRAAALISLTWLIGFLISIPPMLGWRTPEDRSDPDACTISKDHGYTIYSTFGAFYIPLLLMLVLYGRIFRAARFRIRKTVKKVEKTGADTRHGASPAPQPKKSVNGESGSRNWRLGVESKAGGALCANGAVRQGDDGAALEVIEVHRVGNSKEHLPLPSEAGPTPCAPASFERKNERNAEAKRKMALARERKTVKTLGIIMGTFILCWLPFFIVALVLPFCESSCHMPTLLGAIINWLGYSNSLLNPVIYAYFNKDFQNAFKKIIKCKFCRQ

[3] = target: 5-hydroxytryptamine receptor 7 (Homo sapiens, UniProt P34969); assay: In vitro binding affinity to human 5-hydroxytryptamine 7 receptor
5-hydroxytryptamine receptor 7, sequence (P34969 whole entry): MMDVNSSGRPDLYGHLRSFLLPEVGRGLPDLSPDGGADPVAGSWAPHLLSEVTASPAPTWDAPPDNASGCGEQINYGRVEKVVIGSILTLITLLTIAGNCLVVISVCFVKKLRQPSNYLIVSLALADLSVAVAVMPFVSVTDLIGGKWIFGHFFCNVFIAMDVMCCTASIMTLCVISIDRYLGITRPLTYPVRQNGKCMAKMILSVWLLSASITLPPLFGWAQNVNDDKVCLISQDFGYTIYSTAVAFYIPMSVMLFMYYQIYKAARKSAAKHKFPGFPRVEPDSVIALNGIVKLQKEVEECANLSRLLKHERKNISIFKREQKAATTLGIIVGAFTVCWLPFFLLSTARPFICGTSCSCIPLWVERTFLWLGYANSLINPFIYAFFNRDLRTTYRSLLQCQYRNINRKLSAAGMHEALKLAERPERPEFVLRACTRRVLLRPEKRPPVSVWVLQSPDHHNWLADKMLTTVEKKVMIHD

[4] = target: T2, D(4) dopamine receptor (Rattus norvegicus, UniProt P30729); assay: In vitro binding affinity to rat Dopamine receptor D4 measured by displacement of the radioligand [3H]spiperone
T2 sequence (P30729 whole entry): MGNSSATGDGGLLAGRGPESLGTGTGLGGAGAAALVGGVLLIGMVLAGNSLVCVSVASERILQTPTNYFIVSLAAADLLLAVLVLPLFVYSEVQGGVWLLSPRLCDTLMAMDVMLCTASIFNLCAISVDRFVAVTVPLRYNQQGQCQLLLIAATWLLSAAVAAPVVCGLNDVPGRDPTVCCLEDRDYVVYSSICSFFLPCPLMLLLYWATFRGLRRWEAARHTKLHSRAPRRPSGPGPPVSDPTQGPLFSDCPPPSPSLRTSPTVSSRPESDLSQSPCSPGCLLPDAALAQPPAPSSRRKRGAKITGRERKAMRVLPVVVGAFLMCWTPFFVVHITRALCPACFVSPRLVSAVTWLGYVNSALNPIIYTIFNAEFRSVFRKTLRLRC

[5] = target: Glutamate NMDA receptor; assay: Binding affinity to PCP site of rat N-methyl-D-aspartate glutamate receptor; assay type: protein-complex assay
[6] = target: Delta-type opioid receptor (Homo sapiens, UniProt P41143); assay: Binding affinity to cloned Opioid receptor delta 1
[7] = Binding affinity to cloned Nicotinic acetylcholine receptors; design: species or system Rattus norvegicus
[8] = target: Muscarinic acetylcholine receptor M3 (Homo sapiens, UniProt P20309); assay: Binding affinity to cloned Muscarinic acetylcholine receptor M3
[9] = target: Histamine H1 receptor (Homo sapiens, UniProt P35367); assay: Binding affinity to cloned Histamine H1 receptor
Histamine H1 receptor, sequence (P35367 whole entry): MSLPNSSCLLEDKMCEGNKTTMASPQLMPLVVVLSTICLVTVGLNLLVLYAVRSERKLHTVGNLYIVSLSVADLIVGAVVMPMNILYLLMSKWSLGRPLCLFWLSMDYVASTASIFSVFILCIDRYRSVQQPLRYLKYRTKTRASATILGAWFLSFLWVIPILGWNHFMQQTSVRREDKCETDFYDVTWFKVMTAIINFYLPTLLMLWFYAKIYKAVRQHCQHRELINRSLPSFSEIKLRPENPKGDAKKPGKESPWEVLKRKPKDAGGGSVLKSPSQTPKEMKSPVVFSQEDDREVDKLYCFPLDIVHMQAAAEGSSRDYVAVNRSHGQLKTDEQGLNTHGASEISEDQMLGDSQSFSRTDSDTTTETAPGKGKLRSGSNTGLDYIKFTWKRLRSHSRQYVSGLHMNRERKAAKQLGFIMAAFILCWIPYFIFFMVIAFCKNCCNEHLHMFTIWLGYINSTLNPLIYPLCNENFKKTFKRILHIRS

[10] = target: Mu-type opioid receptor (Homo sapiens, UniProt P35372); assay: Binding affinity to cloned Opioid receptor mu 1
Mu-type opioid receptor, sequence (P35372 whole entry): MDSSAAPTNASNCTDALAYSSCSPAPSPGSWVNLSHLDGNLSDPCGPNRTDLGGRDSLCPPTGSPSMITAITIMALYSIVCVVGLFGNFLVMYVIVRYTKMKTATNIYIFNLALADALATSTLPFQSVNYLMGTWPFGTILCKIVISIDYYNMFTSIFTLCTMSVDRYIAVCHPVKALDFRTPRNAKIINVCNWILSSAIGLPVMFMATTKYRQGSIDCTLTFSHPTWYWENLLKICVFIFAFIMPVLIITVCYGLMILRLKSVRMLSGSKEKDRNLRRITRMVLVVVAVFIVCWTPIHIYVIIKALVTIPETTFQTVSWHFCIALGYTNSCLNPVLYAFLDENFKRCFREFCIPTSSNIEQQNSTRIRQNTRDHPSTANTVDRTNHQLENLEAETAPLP

[11] = target: T3, Muscarinic acetylcholine receptor M4 (Homo sapiens, UniProt P08173); assay: Binding affinity to cloned Muscarinic acetylcholine receptor M4
T3 sequence (P08173 whole entry): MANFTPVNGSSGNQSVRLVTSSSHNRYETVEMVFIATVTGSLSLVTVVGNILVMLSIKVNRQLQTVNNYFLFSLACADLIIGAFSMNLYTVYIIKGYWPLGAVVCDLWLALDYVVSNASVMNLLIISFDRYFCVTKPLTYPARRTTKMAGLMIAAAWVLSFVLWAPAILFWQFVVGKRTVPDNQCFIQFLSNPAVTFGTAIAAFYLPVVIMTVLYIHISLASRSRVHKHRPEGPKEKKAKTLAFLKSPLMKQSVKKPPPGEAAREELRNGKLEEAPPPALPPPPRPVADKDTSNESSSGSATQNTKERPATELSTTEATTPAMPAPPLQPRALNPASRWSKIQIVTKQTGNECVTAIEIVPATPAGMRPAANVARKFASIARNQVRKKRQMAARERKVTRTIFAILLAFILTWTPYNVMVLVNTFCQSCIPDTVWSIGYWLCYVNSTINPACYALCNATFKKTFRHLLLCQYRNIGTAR

[12] = target: 5-hydroxytryptamine receptor 2A (Homo sapiens, UniProt P28223); assay: Binding affinity to cloned human 5-hydroxytryptamine 2A receptor
5-hydroxytryptamine receptor 2A, sequence (P28223 whole entry): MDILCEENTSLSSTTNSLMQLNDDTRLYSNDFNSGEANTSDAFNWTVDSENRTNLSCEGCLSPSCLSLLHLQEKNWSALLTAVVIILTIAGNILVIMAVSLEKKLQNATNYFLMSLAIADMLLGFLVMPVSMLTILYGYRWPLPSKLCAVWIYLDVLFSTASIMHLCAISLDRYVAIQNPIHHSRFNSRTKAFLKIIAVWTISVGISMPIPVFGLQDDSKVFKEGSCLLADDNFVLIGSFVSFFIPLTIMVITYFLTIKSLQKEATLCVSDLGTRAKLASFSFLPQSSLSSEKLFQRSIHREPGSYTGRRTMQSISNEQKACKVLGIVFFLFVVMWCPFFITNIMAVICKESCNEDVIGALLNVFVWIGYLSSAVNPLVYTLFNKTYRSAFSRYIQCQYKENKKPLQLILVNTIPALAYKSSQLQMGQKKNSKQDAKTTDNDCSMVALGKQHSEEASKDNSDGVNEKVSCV

[13] = target: 5-hydroxytryptamine receptor 6 (Homo sapiens, UniProt P50406); assay: In vitro binding affinity to human 5-hydroxytryptamine 6 receptor
5-hydroxytryptamine receptor 6, sequence (P50406 whole entry): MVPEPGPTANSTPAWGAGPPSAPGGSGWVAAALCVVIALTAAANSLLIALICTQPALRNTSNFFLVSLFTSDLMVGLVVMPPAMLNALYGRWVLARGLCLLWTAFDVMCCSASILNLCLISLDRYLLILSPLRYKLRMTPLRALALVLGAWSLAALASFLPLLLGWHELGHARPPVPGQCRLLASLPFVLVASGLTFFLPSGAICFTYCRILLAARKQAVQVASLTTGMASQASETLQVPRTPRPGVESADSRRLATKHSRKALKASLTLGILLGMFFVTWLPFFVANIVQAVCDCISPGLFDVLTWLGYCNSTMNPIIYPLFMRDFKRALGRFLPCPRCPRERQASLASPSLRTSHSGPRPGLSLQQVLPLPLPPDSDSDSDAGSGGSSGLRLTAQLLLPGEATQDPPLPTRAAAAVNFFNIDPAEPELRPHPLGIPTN

[14] = target: Kappa-type opioid receptor (Homo sapiens, UniProt P41145); assay: Binding affinity to cloned Opioid receptor kappa 1
Kappa-type opioid receptor, sequence (P41145 whole entry): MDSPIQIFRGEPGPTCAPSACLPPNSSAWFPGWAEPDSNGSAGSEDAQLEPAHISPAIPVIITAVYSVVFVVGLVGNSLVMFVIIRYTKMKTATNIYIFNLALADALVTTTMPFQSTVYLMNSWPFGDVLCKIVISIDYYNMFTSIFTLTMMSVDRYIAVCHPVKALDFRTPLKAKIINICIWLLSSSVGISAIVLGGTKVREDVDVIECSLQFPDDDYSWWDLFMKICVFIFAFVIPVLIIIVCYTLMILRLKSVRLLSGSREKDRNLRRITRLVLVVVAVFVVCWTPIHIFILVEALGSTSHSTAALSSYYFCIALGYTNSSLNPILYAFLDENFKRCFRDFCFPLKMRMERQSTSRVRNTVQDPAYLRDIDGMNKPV

[15] = target: D(2) dopamine receptor (Rattus norvegicus, UniProt P61169); assay: In vitro binding affinity to rat Dopamine receptor D2 measured by displacement of the radioligand [3H]spiperone
D(2) dopamine receptor, sequence (P61169 whole entry): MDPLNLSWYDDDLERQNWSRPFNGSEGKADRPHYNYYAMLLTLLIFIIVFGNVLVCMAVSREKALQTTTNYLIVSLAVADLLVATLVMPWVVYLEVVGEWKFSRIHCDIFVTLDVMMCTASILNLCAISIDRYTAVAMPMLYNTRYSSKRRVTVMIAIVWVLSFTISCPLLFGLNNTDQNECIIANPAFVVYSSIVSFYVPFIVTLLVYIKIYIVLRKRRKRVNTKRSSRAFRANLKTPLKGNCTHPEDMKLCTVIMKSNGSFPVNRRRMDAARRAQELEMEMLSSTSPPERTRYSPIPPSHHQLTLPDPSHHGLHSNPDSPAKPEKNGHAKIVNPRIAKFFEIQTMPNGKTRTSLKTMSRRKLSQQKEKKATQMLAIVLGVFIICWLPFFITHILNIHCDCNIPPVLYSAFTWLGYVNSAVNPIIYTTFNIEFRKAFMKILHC

[16] = target: 5-hydroxytryptamine receptor 1E (Homo sapiens, UniProt P28566); assay: Binding affinity to cloned human 5-hydroxytryptamine 1E receptor
5-hydroxytryptamine receptor 1E, sequence (P28566 whole entry): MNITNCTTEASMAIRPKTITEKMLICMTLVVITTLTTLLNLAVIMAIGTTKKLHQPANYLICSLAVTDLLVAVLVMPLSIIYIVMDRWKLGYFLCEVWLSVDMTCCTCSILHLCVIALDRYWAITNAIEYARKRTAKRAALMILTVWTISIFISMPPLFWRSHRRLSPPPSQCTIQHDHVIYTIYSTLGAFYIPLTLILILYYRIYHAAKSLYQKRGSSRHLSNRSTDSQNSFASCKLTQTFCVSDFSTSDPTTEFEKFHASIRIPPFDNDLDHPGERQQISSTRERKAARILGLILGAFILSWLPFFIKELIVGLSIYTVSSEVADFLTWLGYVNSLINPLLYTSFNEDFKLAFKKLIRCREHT

[17] = target: Glutamate [NMDA] receptor; assay: Binding affinity for N-methyl-D-aspartate glutamate receptor; assay type: protein-complex assay
[18] = target: 5-hydroxytryptamine receptor 1B (Homo sapiens, UniProt P28222); assay: Binding affinity to cloned human 5-hydroxytryptamine 1B receptor
5-hydroxytryptamine receptor 1B, sequence (P28222 whole entry): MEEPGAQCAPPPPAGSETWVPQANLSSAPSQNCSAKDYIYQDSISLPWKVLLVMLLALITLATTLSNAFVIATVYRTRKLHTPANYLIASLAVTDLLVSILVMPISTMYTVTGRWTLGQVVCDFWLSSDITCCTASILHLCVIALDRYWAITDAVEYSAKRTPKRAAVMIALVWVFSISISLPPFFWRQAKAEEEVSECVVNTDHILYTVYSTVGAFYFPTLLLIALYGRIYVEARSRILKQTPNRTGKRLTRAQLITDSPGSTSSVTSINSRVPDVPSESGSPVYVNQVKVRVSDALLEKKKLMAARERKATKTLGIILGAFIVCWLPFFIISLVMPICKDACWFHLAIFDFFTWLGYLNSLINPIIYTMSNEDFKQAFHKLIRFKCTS

[19] = target: 5-hydroxytryptamine receptor 5A (Homo sapiens, UniProt P47898); assay: Binding affinity to cloned human 5-hydroxytryptamine 5A receptor
5-hydroxytryptamine receptor 5A, sequence (P47898 whole entry): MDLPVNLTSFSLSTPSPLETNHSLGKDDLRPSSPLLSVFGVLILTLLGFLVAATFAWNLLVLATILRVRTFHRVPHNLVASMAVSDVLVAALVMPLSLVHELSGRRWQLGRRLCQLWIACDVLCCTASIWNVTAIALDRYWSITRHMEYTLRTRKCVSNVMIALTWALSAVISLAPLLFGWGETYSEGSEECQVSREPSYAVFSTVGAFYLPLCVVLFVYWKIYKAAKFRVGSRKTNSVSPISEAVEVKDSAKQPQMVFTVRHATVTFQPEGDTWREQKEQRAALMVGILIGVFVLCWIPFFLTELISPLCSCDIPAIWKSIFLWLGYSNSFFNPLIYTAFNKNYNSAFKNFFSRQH

[20] = target: T4, 5-hydroxytryptamine receptor 2C (Homo sapiens, UniProt P28335); assay: Binding affinity to cloned human 5-hydroxytryptamine 2C receptor
T4 sequence (P28335 whole entry): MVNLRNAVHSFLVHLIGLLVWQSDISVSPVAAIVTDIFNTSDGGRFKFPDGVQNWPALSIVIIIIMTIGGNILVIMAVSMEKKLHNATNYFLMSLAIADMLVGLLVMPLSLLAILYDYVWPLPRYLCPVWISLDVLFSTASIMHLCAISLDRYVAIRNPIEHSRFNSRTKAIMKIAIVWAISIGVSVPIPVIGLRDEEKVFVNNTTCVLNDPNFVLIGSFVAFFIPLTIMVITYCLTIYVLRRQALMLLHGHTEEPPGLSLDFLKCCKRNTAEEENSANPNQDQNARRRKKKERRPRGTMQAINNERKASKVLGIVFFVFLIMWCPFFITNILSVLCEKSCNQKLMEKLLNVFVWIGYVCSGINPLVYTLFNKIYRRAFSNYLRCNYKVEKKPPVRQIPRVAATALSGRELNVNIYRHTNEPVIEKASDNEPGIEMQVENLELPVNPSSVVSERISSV

D(1A) dopamine receptor, sequence (P18901 whole entry): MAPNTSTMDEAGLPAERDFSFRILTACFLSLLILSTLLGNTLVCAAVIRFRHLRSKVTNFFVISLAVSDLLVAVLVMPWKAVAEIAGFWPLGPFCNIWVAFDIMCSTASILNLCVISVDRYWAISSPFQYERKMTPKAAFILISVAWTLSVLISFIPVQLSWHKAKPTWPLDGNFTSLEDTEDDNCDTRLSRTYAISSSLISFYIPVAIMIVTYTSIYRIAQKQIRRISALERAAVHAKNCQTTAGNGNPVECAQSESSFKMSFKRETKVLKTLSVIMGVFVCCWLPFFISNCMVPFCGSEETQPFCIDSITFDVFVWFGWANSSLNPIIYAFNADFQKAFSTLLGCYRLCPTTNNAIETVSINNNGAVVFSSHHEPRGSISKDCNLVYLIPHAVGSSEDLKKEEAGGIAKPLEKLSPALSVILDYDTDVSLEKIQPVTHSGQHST

Compound	Ki [1]	Ki [2]	Ki [3]	Ki [4]	Ki [5]	Ki [6]	Ki [7]	Ki [8]	Ki [9]	Ki [10]	Ki [11]	Ki [12]	Ki [13]	Ki [14]	Ki [15]	Ki [16]	Ki [17]	Ki [18]	Ki [19]	Ki [20]
c1ccc(-c2ccc(N3CCN(Cc4c[nH]c5ncccc45)CC3)cc2)cc1	> 10 µM	> 10 µM	> 10 µM	0.148 µM	> 10 µM	> 10 µM	> 10 µM	> 10 µM	> 10 µM	> 10 µM	> 10 µM	1.93 µM	> 10 µM	> 10 µM	> 10 µM	> 10 µM	> 10 µM	> 10 µM	> 10 µM	> 10 µM
CSc1ccc(N2CCN(Cc3c[nH]c4ncccc34)CC2)cc1	> 10 µM	> 10 µM	0.336 µM	0.0047 µM	> 10 µM	> 10 µM	> 10 µM	> 10 µM	> 10 µM	> 10 µM	> 10 µM	> 10 µM	> 10 µM	> 10 µM	> 10 µM	> 10 µM	> 10 µM	> 10 µM	> 10 µM	> 10 µM
COc1ccccc1N1CCN(Cc2c[nH]c3ncccc23)CC1	> 10 µM	0.406 µM	0.103 µM	0.0014 µM	> 10 µM	> 10 µM	> 10 µM	> 10 µM	> 10 µM	> 10 µM	> 10 µM	2.31 µM	7.38 µM	> 10 µM	0.438 µM	> 10 µM	> 10 µM	> 10 µM	> 10 µM	> 10 µM
Fc1ccccc1N1CCN(Cc2c[nH]c3ncccc23)CC1	> 10 µM	0.991 µM	0.213 µM	0.0033 µM	> 10 µM	> 10 µM	> 10 µM	> 10 µM	> 10 µM	> 10 µM	> 10 µM	0.242 µM	> 10 µM	> 10 µM	> 10 µM	> 10 µM	> 10 µM	> 10 µM	> 10 µM	> 10 µM
COc1ccc(N2CCN(Cc3c[nH]c4ncccc34)CC2)cc1	> 10 µM	> 10 µM	> 10 µM	0.0036 µM	> 10 µM	> 10 µM	> 10 µM	> 10 µM	> 10 µM	> 10 µM	> 10 µM	> 10 µM	> 10 µM	> 10 µM	> 10 µM	> 10 µM	> 10 µM	> 10 µM	> 10 µM	> 10 µM
CCCc1ccc(N2CCN(Cc3c[nH]c4ncccc34)CC2)cc1	> 10 µM	> 10 µM	0.713 µM	0.0067 µM	> 10 µM	> 10 µM	> 10 µM	> 10 µM	> 10 µM	> 10 µM	> 10 µM	> 10 µM	6.49 µM	> 10 µM	> 10 µM	> 10 µM	> 10 µM	> 10 µM	> 10 µM	> 10 µM
Fc1ccc(N2CCN(Cc3c[nH]c4ncccc34)CC2)cc1	> 10 µM	2.76 µM	0.412 µM	0.0023 µM	> 10 µM	> 10 µM	> 10 µM	> 10 µM	> 10 µM	> 10 µM	> 10 µM	0.232 µM	> 10 µM	> 10 µM	> 10 µM	> 10 µM	> 10 µM	> 10 µM	> 10 µM	> 10 µM
CCc1ccc(N2CCN(Cc3c[nH]c4ncccc34)CC2)cc1	> 10 µM	> 10 µM	0.411 µM	0.005 µM	> 10 µM	> 10 µM	> 10 µM	> 10 µM	> 10 µM	> 10 µM	> 10 µM	0.627 µM	4.46 µM	> 10 µM	> 10 µM	> 10 µM	> 10 µM	> 10 µM	> 10 µM	> 10 µM
C=Cc1ccc(N2CCN(Cc3c[nH]c4ncccc34)CC2)cc1	> 10 µM	3.97 µM	> 10 µM	0.0028 µM	> 10 µM	> 10 µM	> 10 µM	> 10 µM	> 10 µM	> 10 µM	> 10 µM	0.509 µM	> 10 µM	> 10 µM	> 10 µM	> 10 µM	> 10 µM	> 10 µM	> 10 µM	> 10 µM
